From patent US20070004691A1, “Antitumoral combinations containing et-743 and a cruciferous and a cruciferous indole compound” (priority 2003, published 2007)

Tests used:
female rat = details: high-dose dexamethasone pretreatment; cited from earlier work
rat livers = test: Hepatoprotection by modulators of drug metabolism against ET-743; details: compared with dexamethasone
female Wistar rats = test: Study of hepatotoxicity: protection against ET-743-induced liver damage; type: in vivo, rat
Protocol: I3C at 0.1 or 0.5% or di-indolyl methane (DIM) at 0.2% were added to the diet of female Wistar rats (230-260 g) seven days prior to treatment with a hepatotoxic dose of ET-743 (40 μg/kg, iv. via the lateral tail vein). This amount constitutes doses equivalent to approximately 80 and 400 mg/kg I3C per day. Control animals received the unaltered diet and/or water as the vehicle for ET-743. The dose of DIM was based on the following consideration: DIM is the product of the condensation of two molecules of I3C, therefore assuming all of the I3C in the 0.5% dose group dimerises to form DIM, the maximal amount of DIM which could theoretically be generated is half of the amount of I3C in the diet. Each treatment group comprised 4 animals. Hepatic changes were studied by assessment of alterations in plasma levels of bilirubin and liver enzymes ALP and aspartate aminotransferase (AST) and by conventional histopathological investigation of liver tissue.

[1] = Study of ET-743 levels in liver and plasma (HPLC-ESI-MS/MS); type: in vivo, rat; details: for AUC of ET-743 in liver (0-24 h after dosing), mean: rat liver; for AUC of ET-743 in plasma (0-24 h after dosing), mean: rat plasma
Protocol: We tested the hypothesis that I3C pretreatment alters clearance of ET-743 from plasma and liver in vivo. Blood samples and liver tissue were collected from rats before and up to 24 h after administration of ET-743 (40 μg/kg iv.) with or without treatment with I3C (0.5% in the diet) given from 6 days prior to ET-743. Blood samples (by cardiac puncture) and liver tissue were collected before and at 0.5, 1, 3, 6, 12 and 24 h post treatment. Blood was placed in heparinized tubes, and plasma was obtained by centrifugation. An aliquot (0.3 ml) was mixed with 0.7 ml ammonium acetate buffer (0.2 M, pH 5.0). Liver tissue was homogenized (1:1) in water. Levels of ET-743 were measured by HPLC coupled to electrospray ionization tandem mass spectrometry in the plasma and liver samples.

[2] = tested on: human tumour xenografts grown in athymic mice; details: including melanoma and ovarian and breast carcinoma; cited from earlier work
patients = details: prolonged infusion over 24-72 hr; cited from earlier work
13762 tumor = test: Study of antitumor activity: 13762 tumor fragments implanted sc; type: in vivo, rat; details: for tumor weight inhibition (TWI): day 20, I3C 0.5% in diet from implantation, ET-743 40 μg/kg i.v. on day 6, female Fischer rats, weight from caliper diameters; for decrease of terminal tumor weight: tumors excised and weighed at termination of the experiment (day 20), I3C 0.5% diet, ET-743 40 μg/kg i.v.
Protocol: (§1) 13762 tumor fragments (100-200 mg weight) were implanted (sc) into the flank of female Fischer rats (100-120 g). […] Properties of the 13762 tumour have previously been described for example in Braunschweiger P. G., and Schiffer L. M. 1980, J. Natl. Cancer Inst., 64: 671-674: “Growth kinetics of mammary tumor 13762 in rats previously cured by chemotherapy”. Tumor weight (TW) was calculated on each day via tumor diameters, using a Vernier caliper and the formula: TW (in mg)=tumor volume (mm3)=d^2×D/2, in which d and D represent the shortest and longest diameter, respectively. Rats (9-10 per group) received I3C in their diet (0.5%) from the day of tumor implantation to the end of the experiment. ET-743 (40 μg/kg, i.v.) was administered on day 6 post tumor implantation.

[3] = tested on: mice, rats, dogs and monkeys; details: plasma liver-specific enzymes, cholangitis; cited from earlier work
female Fischer rats = test: Protection against pathological manifestations of ET-743 in the liver of tumor-bearing Fischer rats; type: in vivo; details: 0.5% dietary I3C, compared with Wistar rat
Protocol: as §1

[4] = ET-743 alone, 40 μg/kg iv, female Wistar rats
[5] = ET-743 40 μg/kg iv in combination with I3C (0.5% in the diet from 6 days prior)
[6] = I3C 0.1% in diet plus ET-743 40 μg/kg iv

C[C@@H]1C[C@H]2[C@@H]3CCC4=CC(=O)C=C[C@]4(C)[C@@]3(F)[C@@H](O)C[C@]2(C)[C@@]1(O)C(=O)CO [dexamethasone]
hepatic levels of ET-743 after pretreatment (female rat): dramatic reduction

CCC1(c2ccccc2)C(=O)NC(=O)NC1=O [phenobarbitone]
amelioration of ET-743 mediated hepatotoxicity (rat livers): weak

COc1cc2c(cc1O)CCN[C@]21CS[C@@H]2c3c(OC(C)=O)c(C)c4c(c3[C@H](COC1=O)N1C2C2c3c(cc(C)c(OC)c3O)C[C@@H]([C@@H]1O)N2C)OCO4 (stereo partly shown) [ET-743, Ecteinascidin 743]
activities of ALP and AST (female Wistar rats; [4]): elevated | plasma levels of bilirubin (female Wistar rats; [4]): dramatically raised | liver pathology (female Wistar rats; ET-743 alone, 40 μg/kg iv, day 3 and day 9): severe bile duct damage on day 3 and biliary sclerosis on day 9 | AUC of ET-743 in liver (0-24 h after dosing), mean [1, 5]: 563 ngxh/ml | AUC of ET-743 in plasma (0-24 h after dosing), mean [1, 5]: 1.9 ngxh/ml | AUC of ET-743 in liver (0-24 h after dosing), mean ([1]; ET-743 alone, 40 μg/kg iv): 280 ngxh/ml | AUC of ET-743 in plasma (0-24 h after dosing), mean ([1]; ET-743 alone, 40 μg/kg iv): 4.7 ngxh/ml | antineoplastic activity [2]: potent | side effects in patients (patients): myelotoxic and hepatotoxic | tumor weight inhibition (TWI) (13762 tumor): 62% | decrease of terminal tumor weight (13762 tumor): 54% | side effect in preclinical acute toxicity studies [3]: liver toxicity

CC(=O)N[C@@H](CS)C(=O)O [N-acetylcysteine]
amelioration of ET-743 mediated hepatotoxicity (rat livers): failed to protect

OCc1c[nH]c2ccccc12 [I3C, 1H-indole-3-methanol]
plasma bilirubin levels compared to ET-743 alone (female Wistar rats; I3C 0.1% in diet (approx. 80 mg/kg per day) from seven days prior to ET-743 40 μg/kg iv): moderately reduced | AST and ALP activity compared with levels induced by ET-743 alone (female Wistar rats; [6]): did not decrease | pathological manifestations of liver damage compared to ET-743 only (female Wistar rats; [6]): only marginally less severe | protection as reflected by the biochemical indices (female Wistar rats; I3C 0.5% in diet (approx. 400 mg/kg per day) plus ET-743 40 μg/kg iv): complete | protection adjudged on the basis of liver pathology (female Wistar rats; I3C 0.5% in diet plus ET-743 40 μg/kg iv, 3 and 9 days): substantial, albeit not complete | weight of the animals or liver function (biochemical indices or pathology) (female Wistar rats; consumption of I3C on its own in the diet): did not affect | tumor weight inhibition (TWI) (13762 tumor): 35% | decrease of terminal tumor weight (13762 tumor): 43% | protection against the pathological manifestations of ET-743 in the liver (female Fischer rats): same degree of protection

O=c1cc(-c2ccccc2)oc2ccc3ccccc3c12 [β-naphthoflavone]
amelioration of ET-743 mediated hepatotoxicity (rat livers): persisted only for a short term
